# Measured values: patent US7265103B2, “Substituted amino isoxazoline derivatives and their use as anti-depressants” (Janssen Pharmaceutica NV., priority 2002, dated 2007)
# Structures can show the parent of a compound that is named as a salt.
# Target: T1, hα2A receptor (Homo sapiens, UniProt P08913)
# T1 construct: expressed in transfected cells; host or cells: CHO cells
# T1 sequence (P08913 1-465): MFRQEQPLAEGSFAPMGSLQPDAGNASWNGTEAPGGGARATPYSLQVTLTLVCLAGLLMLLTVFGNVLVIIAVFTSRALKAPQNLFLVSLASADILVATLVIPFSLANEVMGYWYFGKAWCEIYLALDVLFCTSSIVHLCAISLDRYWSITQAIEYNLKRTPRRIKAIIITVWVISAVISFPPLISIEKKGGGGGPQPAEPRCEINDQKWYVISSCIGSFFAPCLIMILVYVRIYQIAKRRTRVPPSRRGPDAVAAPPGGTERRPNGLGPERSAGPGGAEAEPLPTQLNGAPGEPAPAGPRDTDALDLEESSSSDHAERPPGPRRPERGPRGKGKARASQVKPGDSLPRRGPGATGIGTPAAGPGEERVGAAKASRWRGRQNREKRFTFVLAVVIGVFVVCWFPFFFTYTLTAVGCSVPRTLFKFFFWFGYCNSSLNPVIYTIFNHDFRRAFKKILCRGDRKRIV
# Test: Radioligand binding experiment for α2A-adrenergic receptor ([3H]-raulwolscine)
# Settings: CHO cell membranes with human α2A receptor, [3H]raulwolscine 1 nM; read-out: pIC50 α2A (converted)
# Procedure: (§1) The interaction of the compounds of Formula (I) with hα2-receptors and h5-HT-transporters was assessed in in vitro radioligand binding experiments. In general, a low concentration of a radioligand with a high binding affinity for a particular receptor or transporter is incubated with a sample of a tissue preparation enriched in a particular receptor or transporter or with a preparation of cells expressing cloned human receptors in a buffered medium. During the incubation, the radioligand binds to the receptor or transporter. When equilibrium of binding is reached, the receptor bound radioactivity is separated from the non-bound radioactivity, and the receptor- or transporter-bound activity is counted. The interaction of the test compounds with the receptor is assessed in competition binding experiments. Various concentrations of the test compound are added to the incubation mixture containing the receptor- or transporter preparation and the radioligand. The test compound in proportion to its binding affinity and its concentration inhibits binding of the radioligand. The radioligand used for hα2A, hα2B and hα2C receptor binding was [^3H]-raulwolscine and for the h5-HT transporter was [^3H]paroxetine.
# (§2) CHO cells, stabile transfected with human adrenergic-α2A-, -α2B or α2C receptor cDNA, were cultured in Dulbecco's Modified Eagle's Medium (DMEM)/Nutrient mixture Ham's F12 (ratio 1:1)(Gibco, Gent-Belgium) supplemented with 10% heat inactivated fetal calf serum (Life Technologies, Merelbeke-Belgium) and antibiotics (100 IU/ml penicillin G, 100 μg/ml streptomycin sulphate, 110 μg/ml pyruvic acid and 100 μg/ml L-glutamine). One day before collection, cells were induced with 5 mM sodiumbutyrate. Upon 80-90% of confluence, cells were scraped in phosphate buffered saline without Ca^2+ and Mg^2+ and collected by centrifugation at 1500×g for 10 min. The cells were homogenised in Tris-HCl 50 mM using an Ultraturrax homogenizer and centrifuged for 10 min at 23,500×g. The pellet was washed once by resuspension and rehomogenization and the final pellet was resuspended in Tris-HCl, divided in 1 ml aliquots and stored at −70° C.
# (§3) Membranes were thawed and re-homogenized in incubation buffer (glycylglycine 25 mM, pH 8.0). In a total volume of 500 μl, 2-10 μg protein was incubated with [^3H]raulwolscine (NET-722) (New England Nuclear, USA) (1 nM final concentration) with or without competitor for 60 min at 25° C. followed by rapid filtration over GF/B filter using a Filtermatel 96 harvester (Packard, Meriden, Conn.). Filters were rinsed extensively with ice-cold rinsing buffer (Tris-HCl 50 mM pH 7.4). Filter-bound radioactivity was determined by scintillation counting in a Topcount (Packard, Meriden, Conn.) and results were expressed as counts per minute (cpm). Non-specific binding was determined in the presence of 1 μM oxymetazoline for hα2A- and hα2B receptors and 1 μM spiroxatrine for hα2C receptors.
# (§4) Data from assays in the presence of compound were calculated as a percentage of total binding measured in the absence of test compound. Inhibition curves, plotting percent of total binding versus the log value of the concentration of the test compound, were automatically generated, and sigmoidal inhibition curves were fitted using non-linear regression. The pIC50 values of test compounds were derived from individual curves.
row,IC50 [nM],SMILES
1,1.26,COc1cc2c(cc1NC(C)=O)OCC1C2=NOC1CN1CCN(CC(C)=Cc2cccc(F)c2)CC1 (stereo not shown) [Compound 49]
2,39.8,CCC(C)(C)NCCN(C)c1ccc2c(c1)OCC1C2=NOC1CN1CCN(CC(C)=Cc2ccc(F)cc2)CC1 (stereo not shown) [Compound 120]
3,15.8,COc1cc2c(cc1NCCN1CCCC1)OCC1C2=NOC1CN1CCN(CC(C)=Cc2cccc(F)c2)CC1 (stereo not shown) [Compound 27]
4,2,"CC(=Cc1ccccc1)CN1CCN(CC2ON=C3c4ccc(N(C)CCO)cc4OCC32)CC1 (single isomer, unassigned) [Compound 34]"
5,316,CCC(C)NC(=O)OCCN(C)c1ccc2c(c1)OCC1C2=NOC1CN1CCN(CC(C)=Cc2ccc(F)cc2)CC1 (stereo not shown) [Compound 127]
6,50.1,CC(=Cc1ccc(F)cc1)CN1CCN(CC2ON=C3c4ccc(NCCN5CCOCC5)cc4OCC32)CC1 (stereo not shown) [Compound 30]
7,15.8,COc1cc2c(cc1NCCN1CCCC1)OCC1C2=NOC1CN1CCN(CC(C)=Cc2ccc(F)cc2)CC1 (stereo not shown) [Compound 29]
8,50.1,CCC(C)Nc1cc2c(cc1OC)C1=NOC(CN3CCN(CC(C)=Cc4ccc(F)cc4)CC3)C1CO2 (stereo not shown) [Compound 99]
9,7.94,COc1cc2c(cc1N1CCOCC1)OCC1C2=NOC1CN1CCN(CC(C)=Cc2cccc(F)c2)CC1 (stereo not shown) [Compound 83]
10,251,CC(=Cc1ccc(F)cc1)CN1CCN(CC2ON=C3c4ccc(N(C)CCOC(=O)CC(C)(C)C)cc4OCC32)CC1 (stereo not shown) [Compound 117]
11,6.31,COc1cc2c(cc1N)OCC1C2=NOC1CN1CCN(CC(C)=Cc2cccc(F)c2)CC1 (stereo not shown) [Compound 86]
12,3.16,C/C(=C\c1ccccc1)CN1CCN(CC2ON=C3c4ccc(NC(=O)[C@H]5CCCN5)cc4OCC32)CC1 (stereo partly shown) [Compound 56]
13,501,C=CCN(C)CCN(C)c1ccc2c(c1)OCC1C2=NOC1CN1CCN(CC(C)=Cc2ccc(F)cc2)CC1 (stereo not shown) [Compound 121]
14,3.16,CC(=Cc1cccc(F)c1)CN1CCN(CC2ON=C3c4ccc(N(C)CCO)cc4OCC32)CC1 (stereo not shown) [Compound 35]

# Target: T2, hα2C receptor (Homo sapiens, UniProt P18825)
# T2 construct: expressed in transfected cells; host or cells: CHO cells
# T2 sequence (P18825 1-462): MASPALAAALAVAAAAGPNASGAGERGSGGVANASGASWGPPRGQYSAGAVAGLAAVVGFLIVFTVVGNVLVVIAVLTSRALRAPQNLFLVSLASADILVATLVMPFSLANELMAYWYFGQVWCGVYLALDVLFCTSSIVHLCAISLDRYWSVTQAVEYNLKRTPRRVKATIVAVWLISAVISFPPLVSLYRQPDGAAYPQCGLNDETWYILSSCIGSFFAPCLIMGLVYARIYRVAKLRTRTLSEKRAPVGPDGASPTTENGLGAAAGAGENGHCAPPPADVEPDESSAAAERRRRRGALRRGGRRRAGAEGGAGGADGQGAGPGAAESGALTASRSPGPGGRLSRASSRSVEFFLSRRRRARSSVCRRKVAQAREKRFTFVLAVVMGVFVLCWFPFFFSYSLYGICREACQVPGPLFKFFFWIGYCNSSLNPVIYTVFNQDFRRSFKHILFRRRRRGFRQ
# Test: Radioligand binding experiment for α2C-adrenergic receptor ([3H]-raulwolscine)
# Settings: CHO cell membranes with human α2C receptor, [3H]raulwolscine 1 nM; read-out: pIC50 α2C (converted)
# Procedure: as §1, §2, §3, §4
row,IC50 [nM],SMILES
1,0.251,COc1cc2c(cc1NC(C)=O)OCC1C2=NOC1CN1CCN(CC(C)=Cc2cccc(F)c2)CC1 (stereo not shown) [Compound 49]
2,6.31,CCC(C)(C)NCCN(C)c1ccc2c(c1)OCC1C2=NOC1CN1CCN(CC(C)=Cc2ccc(F)cc2)CC1 (stereo not shown) [Compound 120]
3,3.16,COc1cc2c(cc1NCCN1CCCC1)OCC1C2=NOC1CN1CCN(CC(C)=Cc2cccc(F)c2)CC1 (stereo not shown) [Compound 27]
4,0.398,"CC(=Cc1ccccc1)CN1CCN(CC2ON=C3c4ccc(N(C)CCO)cc4OCC32)CC1 (single isomer, unassigned) [Compound 34]"
5,158,CCC(C)NC(=O)OCCN(C)c1ccc2c(c1)OCC1C2=NOC1CN1CCN(CC(C)=Cc2ccc(F)cc2)CC1 (stereo not shown) [Compound 127]
6,3.98,CC(=Cc1ccc(F)cc1)CN1CCN(CC2ON=C3c4ccc(NCCN5CCOCC5)cc4OCC32)CC1 (stereo not shown) [Compound 30]
7,1.58,COc1cc2c(cc1NCCN1CCCC1)OCC1C2=NOC1CN1CCN(CC(C)=Cc2ccc(F)cc2)CC1 (stereo not shown) [Compound 29]
8,50.1,CCC(C)Nc1cc2c(cc1OC)C1=NOC(CN3CCN(CC(C)=Cc4ccc(F)cc4)CC3)C1CO2 (stereo not shown) [Compound 99]
9,2.51,COc1cc2c(cc1N1CCOCC1)OCC1C2=NOC1CN1CCN(CC(C)=Cc2cccc(F)c2)CC1 (stereo not shown) [Compound 83]
10,126,CC(=Cc1ccc(F)cc1)CN1CCN(CC2ON=C3c4ccc(N(C)CCOC(=O)CC(C)(C)C)cc4OCC32)CC1 (stereo not shown) [Compound 117]
11,1.58,COc1cc2c(cc1N)OCC1C2=NOC1CN1CCN(CC(C)=Cc2cccc(F)c2)CC1 (stereo not shown) [Compound 86]
12,0.501,C/C(=C\c1ccccc1)CN1CCN(CC2ON=C3c4ccc(NC(=O)[C@H]5CCCN5)cc4OCC32)CC1 (stereo partly shown) [Compound 56]
13,100,C=CCN(C)CCN(C)c1ccc2c(c1)OCC1C2=NOC1CN1CCN(CC(C)=Cc2ccc(F)cc2)CC1 (stereo not shown) [Compound 121]
14,1.26,CC(=Cc1cccc(F)c1)CN1CCN(CC2ON=C3c4ccc(N(C)CCO)cc4OCC32)CC1 (stereo not shown) [Compound 35]

# Target: T3, h5-HT transporter (Homo sapiens, UniProt P31645)
# T3 construct: Human platelet membranes (Oceanix Biosciences Corporation, Hanover, Md., USA) were thawed; tissue Oceanix Biosciences Corporation; host or cells: human platelet membranes
# Test: Radioligand binding experiment for 5-HT transporter ([3H]paroxetine)
# Settings: human platelet membranes, [3H]paroxetine 0.5 nM
# Procedure: as §1
# Human platelet membranes (Oceanix Biosciences Corporation, Hanover, Md., USA) were thawed, diluted in buffer (Tris-HCl 50 mM, 120 mM NaCl and 5 mM KCl) and quickly (max 3 s) homogenised with an Ultraturrax homogenizer. In a total volume of 250 μL, 50-100 μg protein was incubated with [^3H]paroxetine (NET-869) (New England Nuclear, USA) (0.5 nM final concentration) with or without competitor for 60 min at 25° C. Incubation was stopped by rapid filtration of the incubation mixture over GF/B filters, pre-wetted with 0.1% polyethyleneamine, using a Filtermatel 96 harvester (Packard, Meriden, Conn.). Filters were rinsed extensively with ice-cold buffer and radioactivity on the filters was counted in a Topcount liquid scintillation counter (Packard, Meriden, Conn.). Data were expressed as cpm. Imipramine (at 1 μM final concentration) was used to determine the non-specific binding.
# as §4
# T3 sequence (P31645 whole entry): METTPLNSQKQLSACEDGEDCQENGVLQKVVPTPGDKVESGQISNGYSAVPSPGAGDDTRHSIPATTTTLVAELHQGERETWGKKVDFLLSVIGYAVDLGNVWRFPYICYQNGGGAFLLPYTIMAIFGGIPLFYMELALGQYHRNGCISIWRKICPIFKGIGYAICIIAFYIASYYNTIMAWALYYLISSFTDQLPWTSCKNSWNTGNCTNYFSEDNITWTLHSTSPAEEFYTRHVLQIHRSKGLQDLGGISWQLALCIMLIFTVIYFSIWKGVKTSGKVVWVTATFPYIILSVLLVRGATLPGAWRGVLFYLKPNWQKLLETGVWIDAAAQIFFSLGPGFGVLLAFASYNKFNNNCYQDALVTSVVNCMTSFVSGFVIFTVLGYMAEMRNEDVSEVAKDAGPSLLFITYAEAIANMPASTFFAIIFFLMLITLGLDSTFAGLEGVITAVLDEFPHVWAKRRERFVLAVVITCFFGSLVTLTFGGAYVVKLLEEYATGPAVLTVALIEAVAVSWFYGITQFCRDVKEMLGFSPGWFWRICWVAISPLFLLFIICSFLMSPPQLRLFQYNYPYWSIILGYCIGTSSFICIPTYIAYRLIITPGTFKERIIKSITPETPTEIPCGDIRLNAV
row,IC50 [nM],SMILES
1,7.94,COc1cc2c(cc1NC(C)=O)OCC1C2=NOC1CN1CCN(CC(C)=Cc2cccc(F)c2)CC1 (stereo not shown) [Compound 49]
2,2.51,CCC(C)(C)NCCN(C)c1ccc2c(c1)OCC1C2=NOC1CN1CCN(CC(C)=Cc2ccc(F)cc2)CC1 (stereo not shown) [Compound 120]
3,5.01,COc1cc2c(cc1NCCN1CCCC1)OCC1C2=NOC1CN1CCN(CC(C)=Cc2cccc(F)c2)CC1 (stereo not shown) [Compound 27]
4,63.1,"CC(=Cc1ccccc1)CN1CCN(CC2ON=C3c4ccc(N(C)CCO)cc4OCC32)CC1 (single isomer, unassigned) [Compound 34]"
5,200,CCC(C)NC(=O)OCCN(C)c1ccc2c(c1)OCC1C2=NOC1CN1CCN(CC(C)=Cc2ccc(F)cc2)CC1 (stereo not shown) [Compound 127]
6,10,CC(=Cc1ccc(F)cc1)CN1CCN(CC2ON=C3c4ccc(NCCN5CCOCC5)cc4OCC32)CC1 (stereo not shown) [Compound 30]
7,3.16,COc1cc2c(cc1NCCN1CCCC1)OCC1C2=NOC1CN1CCN(CC(C)=Cc2ccc(F)cc2)CC1 (stereo not shown) [Compound 29]
8,158,CCC(C)Nc1cc2c(cc1OC)C1=NOC(CN3CCN(CC(C)=Cc4ccc(F)cc4)CC3)C1CO2 (stereo not shown) [Compound 99]
9,15.8,COc1cc2c(cc1N1CCOCC1)OCC1C2=NOC1CN1CCN(CC(C)=Cc2cccc(F)c2)CC1 (stereo not shown) [Compound 83]
10,100,CC(=Cc1ccc(F)cc1)CN1CCN(CC2ON=C3c4ccc(N(C)CCOC(=O)CC(C)(C)C)cc4OCC32)CC1 (stereo not shown) [Compound 117]
11,5.01,COc1cc2c(cc1N)OCC1C2=NOC1CN1CCN(CC(C)=Cc2cccc(F)c2)CC1 (stereo not shown) [Compound 86]
12,12.6,C/C(=C\c1ccccc1)CN1CCN(CC2ON=C3c4ccc(NC(=O)[C@H]5CCCN5)cc4OCC32)CC1 (stereo partly shown) [Compound 56]
13,158,C=CCN(C)CCN(C)c1ccc2c(c1)OCC1C2=NOC1CN1CCN(CC(C)=Cc2ccc(F)cc2)CC1 (stereo not shown) [Compound 121]
14,7.94,CC(=Cc1cccc(F)c1)CN1CCN(CC2ON=C3c4ccc(N(C)CCO)cc4OCC32)CC1 (stereo not shown) [Compound 35]

# Test system: not given
# Test: not given
# Settings: not given
row,melting point [°C],SMILES
1,218 to 226,CC(=Cc1ccc(F)cc1)CN1CCN(CC2ON=C3c4ccc(N(C)CCN)cc4OCC32)CC1 (stereo not shown) (as salt: HCl) [Compound 19]
